Patent US7053069B2, “Pharmaceutical compositions and methods of using C-21 modified epothilone derivatives” (Bristol-Myers Squibb Company, priority 2002, dated 2006)

How the values were obtained:
[1] = Aqueous solubility / formulation without surfactants; format: physicochemical
Procedure: The epothilones of formula Ic may be formulated without the use of surfactants to a concentration of about at least 20 mg/mL with pH adjustment. If formulations containing a surfactant are desired, the lyophilized epothilone analogs represented by formula I, Ia, Ib and Ic are reconstituted with a mixture of equal parts by volume of Dehydrated Alcohol, USP and a nonionic surfactant, preferably a polyoxyethylated castor oil surfactant (available from GAF Corporation, Mount Olive, N.J., under the trademark, Cremophor EL). Alternately, an oral suspension can be prepared by pH adjustment and the use of a stabilizer, surfactant, and/or viscosity enhancing agent, and may be administered alone or with water or with a pharmaceutically acceptable acid neutralizing buffer.

[2] = Clinical pharmacokinetics, 15-minute infusion once every three weeks; format: in vivo, human
Procedure: (§1) Compound A was administered to human patients once every three (3) weeks as a 15-minute infusion, using an accelerated followed by modified Fibonacci dose escalation design. Twenty-two (22) patients were treated at does levels of 0.6, 1.2, 2.5, 5, 10, 20, 30 and 40 mg/m^2.

[3] = Degradation of drug during solution preparation and lyophilization; format: physicochemical; details: dissolution at about 5° C., pH 6.0, lyophilization at −15° C. 34 hours, drying at 25° C. 24 hours
Procedure: [1S-[1R*,3R*(E),7R*,10S*,11R*,12R*,16S*]]-3-[2-[2-(Aminomethyl)-4-thiazolyl]-1-methylethenyl]-7,11-dihydroxy-8,8,10,12,16-pentamethyl-4,17-dioxabicyclo[14.1.0]heptadecane-5,9-dione (compound of formula Ic) (8.7 g) was dissolved in 1280 mL of an aqueous solution of citric acid (10.1 grams) and dextran 40 (80 grams) which had been pre-cooled to about 5° C. Once the drug powder had become completely dissolved, the solution pH was adjusted to 6.0 and Water for Injection (178 mL) was added.
The solution formed above was promptly lyophilized in a Virtis Genesis(TM) lyophilizer at −15° C. with exclusion of light over a period of 34 hours. The resultant lyophile was then further dried at 25° C. under high vacuum for 24 hours. […] The lyophile was packaged under clean conditions into 15 mL vials, each containing 10 mg of drug plus a 10% excess to allow for transfer and dispensing (vial/needle/syringe, VNS) losses.

[4] = Clinical toxicity in dose escalation study; format: in vivo; details: human patients
Procedure: as §1

[5] = tested on: taxane-sensitive and taxane-resistant tumor models; test: Anticancer activity in tumor models
[6] = Stability of aqueous solution, time for 5% drug loss (t95); format: physicochemical; details: 37° C.
Source text: Administering one or more epothilones of formula I, Ia, Ib or Ic, or a pharmaceutically acceptable salt, solvate, clathrate, hydrate, or prodrug thereof, in combination with a pharmaceutically acceptable acid neutralizing buffer provides increased bioavailability of the one or more epothilones of formula I, Ia, Ib or Ic. Without being limited by theory, it is believed that the increased bioavailability is due, at least in significant part, to the buffer decreasing the rate of decomposition of the epothilones of formula I, Ia, Ib or Ic, or a pharmaceutically acceptable salt, solvate, clathrate, hydrate, or prodrug thereof, in the acidic environment of the stomach. Certain epothilones, including the epothilone of formula Ic, are unstable in acidic aqueous environments and decompose, presumably by an acid catalyzed hydrolytic opening of the epoxide ring. For example, the time for 5% drug loss (t95) at 37° C. for an aqueous solution of Compound A (epothilone of formula Ic) is approximately 14 h at pH 7, but <0.2 hours at pH 2.5. Thus, when epothilones of formula I, Ia, Ib or Ic, or a pharmaceutically acceptable salt, solvate, clathrate, hydrate, or prodrug thereof, are orally administered they decompose in the stomach of the patient such that they are either minimally absorbed or not absorbed by the gastrointestinal tract.

[7] = human, 30 mg/m^2, cycle 1, mean, n=7
[8] = plasma, intravenous, 30 mg/m2, human, 30 mg/m^2, cycle 1, mean, n=7

With `C/C(=C\c1csc(CN)n1)[C@@H]1C[C@@H]2O[C@]2(C)CCC[C@H](C)[C@H](O)[C@@H](C)C(=O)C(C)(C)[C@@H](O)CC(=O)O1` [Compound A, [1S-[1R*,3R*(E),7R*,10S*,11R*,12R*,16S*]]-3-[2-[2-(aminomethyl)-4-thiazolyl]-1-methylethenyl]-7,11-dihydroxy-8,8,10,12,16-pentamethyl-4,17-dioxabicyclo[14.1.0]heptadecane-5,9-dione] the aqueous solubility [1] was “water soluble”, the “concentration formulated without surfactants” value ([1]; with pH adjustment) was “at least 20 mg/mL” and the “time plasma concentrations near or above the preclinically determined effective concentration (MEC)” value ([2]; four of the seven patients in the 30 mg/m2 cohort) was “about 8 hours”. For the same compound, the “increases in AUC and CMAX” value ([2]; human patients, 0.6 to 40 mg/m^2, preliminary pharmacokinetics) was “dose-related”, the C1t [2, 7] was 282 mL/min/m^2 and the Vss [2, 7] was 494 L/m^2. For the same compound, the AUC [2, 8] was 2100 ng·h/mL, the Cmax [2, 8] was 3430 ng/mL and the half-life [2, 8] was 33 h. The “degradation of the drug” value [3] was “No detectable degradation”, the related toxicities [4] was “diarrhea, nausea, vomitting, anorexia, fatigue, anemia, alopecia, neuropathy, myalgia and neutropenia” and the “dose-limiting toxicity (DLT)” value ([4]; 0.6 to 40 mg/m^2) was “No dose-limiting toxicity (DLT) was observed”. The anticancer activity [5] was “demonstrated anticancer activity”, the “time for 5% drug loss (t95)” value ([6]; pH 2.5) was < 0.2 h and the “time for 5% drug loss (t95)” value ([6]; pH 7) was “approximately 14 h”.
